Each block holds one compound with its values, some of them ahead of it.
What was measured:
[1] = Chemical stability in 15% aqueous NaOH; format: physicochemical; settings: 30 min, data not shown
[2] = Stability of DT3-F2 in microsomes over 60 min, normal phase LC-fluorescence; format: in vitro ADME, mouse; settings: 37 °C, no NADPH, fluorescence detection
[3] = format: in vitro ADME, mouse; settings: 1 μM, 37 °C
[4] = Metabolic stability in mouse liver microsomes with or without NADPH
in vitro = settings: mouse, microsomes
[5] = Reactivity of model compound 3 with nucleophiles; format: physicochemical
[6] = ref [2]; cited from earlier work
[7] = mouse, 1 μM, pH 7.4
[8] = pH 7.4, % remaining at 30 min with NADPH
[9] = pH 7.4, % remaining at 30 min without NADPH

Compound: CC(C)=CCC/C(C)=C/CC/C(C)=C/CC[C@]1(C)CCc2cc(O)c(C)c(C)c2O1 [γ-tocotrienol]
Plasma elimination half-life [6]: short

Compound: CC(C)=CCC/C(C)=C/CC/C(C)=C/CC[C@]1(C)CCc2cc(O)cc(C)c2O1 [δ-Tocotrienol]
Clin,u [7]: 5240 ± 819.7 µL/min/mg | remaining at 0.5 h, 1 μM (in vitro; [8]): 63.7 ± 6.7% | remaining at 0.5 h, 1 μM (in vitro; [9]): 100 ± 6.6% | Plasma elimination half-life [6]: short | half-life at 1 μM ([4]; mouse, microsomes, pH 7.4): 1.8 ± 0.287 h

Next, values leading:

Stability when stirred in 15% aqueous NaOH [1]: remained intact | Parent peak after incubation in mouse liver microsomes [2]: no longer detectable | Decrease of compound after incubation with active mouse liver microsomes ([3]; 10 min, microsomes + buffer, no NADPH): ~ 50% | Degradation with mouse liver microsomes + NADPH, compared with microsomes alone ([3]; up to 10 min, NADPH present): More degradation | Stability in buffer (PBS) alone ([3]; up to 10 min, PBS): stable | Degradation in mouse liver microsomes in the presence of NADPH (in words) ([4]; with NADPH, 30 min): exhausted (below detection limit) | Degradation in mouse liver microsomes in the absence of NADPH (in words) ([4]; without NADPH, 30 min): exhausted (below detection limit)
Compound: C/C(=C\CC/C(C)=C/CC[C@]1(C)CCc2cc(O)cc(C)c2O1)CCC=C(CF)CF [DT3-F2 (1), (R)-2-((3E,7E)-13-Fluoro-12-(fluoromethyl)-4,8-dimethyltrideca-3,7,11-trien-1-yl)-2,8-dimethylchroman-6-ol]

half-life at 1 μM (in vitro; pH 7.4): 0.417 ± 0.16 h | remaining at 0.5 h, 1 μM (in vitro; [8]): 14.5 ± 10.4% | remaining at 0.5 h, 1 μM (in vitro; [9]): 107 ± 8.9%
Compound: CC(C)NCC(O)COc1cccc2ccccc12 (stereo not drawn) [Propranolol]

Reaction with morpholine in HBD solvents ([5]; hydrogen-bond donor solvents, 70 °C, Figure S3): able to react | Reaction with N-acetyl cysteine (NAC) ([5]; nucleophilic sulfide NAC, Figure S2): No reaction
Compound: C/C(=C\CS(=O)(=O)c1ccccc1)CCC=C(CF)CF [compound 3, (E)-((8-Fluoro-7-(fluoromethyl)-3-methylocta-2,6-dien-1-yl)sulfonyl) benzene]
